# Data published in US9233079B2, “Method for producing nanocapsules in the absence of an organic solvent, and nanocapsules produced thereby” (UNIVERSITE CLAUDE BERNARD LYON I, priority 2008, dated 2016).
# Experiment: Saturation concentration of chlorhexidine base in water
# Assay type: physicochemical
# Method: The size and the zeta potential of the nanocapsules, determined using a Zetamaster® S, are 450 nm and −40 mV, respectively. The concentration of free (i.e. nonencapsulated) chiorhexidine in the nanocapsule suspension was determined after filtration of the colloidal suspension through a 0.22 μm filter. After dilution in distilled water, the concentration of chiorhexidine base free in the filtrate, determined by high performance liquid chromatography (HPLC) (H. Lboutounne, V. Faivre, F. Faison, and F. Pirot, Skin Pharmacology and Applied Skin Physiology 17: 176-182 (2004); H. Lboutounne, J.-F. Chaulet, C. Ploton, F. Faison, and F. Pirot Journal of Controlled Release 82: 319-334 (2002); D. T. T. Nhung, A.-M. Freydiere, H. Constant, F. Faison, and F. Pirot International Journal of Pharmaceutics 334:166-172 (2007)), was in the region of 0.008%, i.e. the saturation concentration of chiorhexidine base in water. The concentration of encapsulated chlorhexidine base was determined by virtue of the difference between the total concentration of chlorhexidine base in the suspension and the concentration of free chlorhexidine. The total concentration of encapsulated chiorhexidine base was determined after dilution of an aliquot of colloidal suspension in a mixture of acetonitrile/sodium acetate (30 mM) (50/50, v/v). […]
compound,measurement,value
"N=C(NCCCCCCNC(=N)NC(=N)Nc1ccc(Cl)cc1)NC(=N)Nc1ccc(Cl)cc1 [chlorhexidine base, Chlorhexidine base]",saturation concentration of chlorhexidine base in water,~0.008%
